Read-outs that look alike come from different tables or passages of the source.
Key:
[1] = molecular target: T1, TYK2-JH2 (aa 575-869, in-house) protein (Homo sapiens, UniProt P29597); experiment: TYK2-JH2 biochemical assay (HTRF probe displacement); type: binding; conditions: for Selectivity fold (TYK2/JAK1): JAK1-JH2 IC50 vs TYK2-JH2 IC50
T1 construct: TYK2-JH2 (aa 575-869, in-house) protein; made in house
Summary of the method: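 Recombinant TYK2-JH2 (0.2 nM) was pre-incubated 0.5 h at room temperature with compounds (10 doses, 5-fold dilution; 500× DMSO stocks from 500 uM) in 20 mM HEPES pH 7.5, 10 mM MgCl2, 0.005% BSA, 2 mM DTT, 0.015% Brij-35. Probe displacement was read by HTRF (ex337, em620/665 nm); IC50 from four-parameter logistic fit.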

[2] = molecular target: T2, JAK1-JH2 protein (aa 561-860, in-house) (Homo sapiens, UniProt P23458); experiment: JAK1-JH2 biochemical assay (HTRF probe displacement); type: binding
T2 construct: JAK1-JH2 protein (aa 561-860, in-house); made in house
T2 sequence (P23458 561-860): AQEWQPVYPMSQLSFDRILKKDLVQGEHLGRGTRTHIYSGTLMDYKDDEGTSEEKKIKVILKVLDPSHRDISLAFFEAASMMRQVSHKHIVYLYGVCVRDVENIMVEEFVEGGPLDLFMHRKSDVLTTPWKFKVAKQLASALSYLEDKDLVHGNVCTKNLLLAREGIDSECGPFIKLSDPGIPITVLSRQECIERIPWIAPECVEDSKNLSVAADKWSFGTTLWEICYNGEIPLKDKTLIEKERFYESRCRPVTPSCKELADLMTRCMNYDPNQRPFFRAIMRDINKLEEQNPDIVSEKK
Protocol: Assay B: JAK1-JH2 Biochemical Assay
Compounds disclosed herein were tested for blocking of JAK1-JH2 protein (aa 561-860, in-house) with its probe in an assay based on Homogeneous Time Resolved Fluorescence. Compound dilution is done according to the following protocol: (1) Prepare 500× compounds solution in DMSO from 500 uM by 5-fold dilution, total 10 doses were included; (2) Prepare 10× compounds solution in an assay buffer containing 20 mM HEPES, pH 7.5, 10 mM MgCl2, 0.005% BSA, 2 mM DTT, 0.015% Brij-35 by transferring 1 μl serial 500× stock solution into 49 μl assay buffer. 4 μL of 1.17 nM recombinant JAK1-JH2 protein was pre-incubated with 1 μl of 10× serial dilution of compounds at room temperature for 0.5 hour. […] The HTRF signals (ex337 nm, em620 nm/665 nm) were read on BMG PHERAstar FS instrument. The inhibition percentage of JAK1 interaction with its probe in presence of increasing concentrations of compounds was calculated based on the ratio of fluorescence at 615 nm to that at 665 nm. The IC50 for each compound was derived from fitting the data to the four-parameter logistic equation by Dotmatics.

[3] = system: JAK2, TYK2/p-STAT4 (Tyr693) activated by IL-12 in NK-92 cell line; experiment: IL-12-JAK2, TYK2/p-STAT4 (Tyr693) inhibition IC50 cellular assay; type: cell-based; conditions: for Selectivity fold (TYK2/JAK2): Cellular assay, pSTAT5/GM-CSF IC50 vs pSTAT4/IL-12 IC50; for IC50: NK92, Cellular assay, read-out: pSTAT4/IL-12 IC50
Summary of the method: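 NK-92 cells were starved overnight without IL-2 and preincubated 1 h at 37° C with compound (8 doses, 10000–0.61 nM, 4-fold, 0.2% DMSO). They were then stimulated with IL-12 (40 ng/ml final) for 30 min. Lysate p-STAT4 (Tyr693) was read by AlphaLISA SureFire; IC50 from four-parameter logistic fit.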

[4] = system: pSTAT5/GM-CSF; experiment: pSTAT5/GM-CSF cellular assay (JAK2 selectivity); type: cell-based
[5] = Mouse PK study, oral administration; type: in vivo, male CD-1 mouse
Protocol: Biological Assay: Mouse PK Study
The pharmacokinetics of compounds were evaluated in male CD-1 mouse via Oral Administration (dose of 10 mg/kg). For oral administration study, test compounds were added in 0.5% MC in water and administrated to mice at 10 mg/kg by gavage. Blood was collected into EDTA-K2 anticoagulant tube at 15, and 30 min and 1, 2, 4, 8 and 24 h after administration. Approximately 30 μL blood was collected at each time point. And then the blood was centrifuged at 2000 g for 5 min at 4° C. using a centrifuge to obtain the plasma. The plasma sample was transferred into a tube and stored in a freezer at approximately −70° C. until the determination of concentration by LC-MS/MS. Pharmacokinetic parameters were estimated by using WinNonlin software (version 8.1, Pharsight Corporation, CA, USA) with non-compartmental method. The following pharmacokinetic parameters were calculated, whenever possible from the plasma concentration-time data: Tmax, Cmax, AUClast, AUCinf, T1/2 for PO administration. All animals were fasted before experiment.

[6] = molecular target: T2, JAK1-JH2 protein (aa 561-860, in-house); experiment: JAK1-JH2 biochemical assay (HTRF probe displacement); type: binding; conditions: in-house probe of the JAK1-JH2 assay
[7] = read-out: Tyk2 JH2 domain bio-chemical potency
[8] = Biochemical assay, read-out: TYK2-JH2 IC50
[9] = Po dosing (10 mg/kg), male CD-1 mouse
[10] = male, CD-1, plasma, Po 10 mg/kg mouse
[11] = plasma, Po dosing (10 mg/kg), male CD-1 mouse, read-out: Cmax

T1 sequence (P29597 575-869): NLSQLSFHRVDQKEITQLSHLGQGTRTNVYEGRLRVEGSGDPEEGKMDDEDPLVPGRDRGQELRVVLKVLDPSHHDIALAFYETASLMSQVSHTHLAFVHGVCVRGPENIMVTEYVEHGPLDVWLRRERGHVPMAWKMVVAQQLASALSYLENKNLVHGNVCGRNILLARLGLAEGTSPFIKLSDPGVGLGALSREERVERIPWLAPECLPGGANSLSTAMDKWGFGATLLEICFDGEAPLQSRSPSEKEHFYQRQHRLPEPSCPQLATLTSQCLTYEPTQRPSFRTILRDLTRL

For `CC(=O)Nc1cc(Nc2cccc(S(C)(=O)=O)n2)c(-c2ccccn2)cn1` [Example B5, N-(4′-((6-(methylsulfonyl)pyridin-2-yl)amino)-[2,3′-bipyridin]-6′-yl)acetamide], the “fold more potent than Example B1 in bio-chemical assay” value [1] was 2 fold, the “Selectivity fold (TYK2/JAK1)” value ([1]; Biochemical assay) was 19 fold and the IC50 [1, 7] was 0.016 nM. For the same molecule, the IC50 [2] was 0.31 nM, the “fold more potent than Example B1 in cellular assay” value [3] was 40 fold and the “Selectivity fold (TYK2/JAK2)” value [3] was >41152 fold. For the same molecule, the IC50 [3] was 0.243 nM and the IC50 [4] was > 10000 nM.
For `CC(=O)Nc1cc(Nc2cccc(S(C)(=O)=O)c2)c(-c2cc(C)nc(C)n2)cn1` [Example A6, N-(5-(2,6-dimethylpyrimidin-4-yl)-4-((3-(methylsulfonyl)phenyl)amino)pyridin-2-yl)acetamide], the “Selectivity fold (TYK2/JAK1)” value ([1]; Biochemical assay) was 128 fold, the IC50 [1, 8] was 0.14 nM and the IC50 [2] was 18 nM. The “Selectivity fold (TYK2/JAK2)” value [3] was >196 fold, the IC50 [3] was 51 nM and the IC50 [4] was > 10000 nM.
In the case of `COc1cc(Nc2cc(NC(C)=O)ncc2-c2ccc(C(C)(C)O)cn2)nc(S(C)(=O)=O)c1` [Example H11, N-(5-(2-hydroxypropan-2-yl)-4′-((4-methoxy-6-(methylsulfonyl)pyridin-2-yl)amino)-[2,3′-bipyridin]-6′-yl)acetamide], the IC50 [1, 8] is reported as 0.027 nM, the “Selectivity fold (TYK2/JAK2)” value [3] is reported as >10000 fold and the IC50 [3] is reported as 1 nM. For the same molecule, the IC50 [4] was > 10000 nM, the AUClast [5, 9] was 19.3 ng·h/mL and the Cmax [5, 9] was 8.73 ng/mL. For the same molecule, the T1/2 [5, 9] was 2.07 h, the AUC [5, 10] was 19.4 ng·h/mL and the Cmax ([5]; male, CD-1, plasma, Po 10 mg/kg mouse, read-out: Cmax) was 7 ng/mL.
In the case of `CC(=O)Nc1cc(Nc2cccc(S(C)(=O)=O)c2)c(-c2ccc(C(C)(C)O)cn2)cn1` [Example H1, N-(5-(2-hydroxypropan-2-yl)-4′-((3-(methylsulfonyl)phenyl)amino)-[2,3′-bipyridin]-6′-yl)acetamide], the “Selectivity fold (TYK2/JAK1)” value ([1]; Biochemical assay) is reported as 87.5 fold, the IC50 [1, 8] is reported as 0.016 nM and the IC50 [2] is reported as 1.4 nM. The “Selectivity fold (TYK2/JAK2)” value [3] was >3846 fold, the IC50 [3] was 2.6 nM and the IC50 [4] was > 10000 nM.
With `COc1cccc(Nc2cc(NC(C)=O)ncc2-c2ccccn2)c1` [Example B13, N-(4′-((3-methoxyphenyl)amino)-[2,3′-bipyridin]-6′-yl)acetamide] the “Selectivity fold (TYK2/JAK1)” value ([1]; Biochemical assay) was 42 fold, the IC50 [1, 8] was 0.43 nM and the IC50 [2] was 18 nM. For the same molecule, the “Selectivity fold (TYK2/JAK2)” value [3] was >54 fold, the IC50 [3] was 183 nM and the IC50 [4] was > 10000 nM.
In the case of `CC(=O)Nc1cc(Nc2cccc(S(C)(=O)=O)c2)c(-c2ccccn2)cn1` [Example B1, N-(4′-((3-(methylsulfonyl)phenyl)amino)-[2,3′-bipyridin]-6′-yl)acetamide], the “Selectivity fold (TYK2/JAK1)” value ([1]; Biochemical assay) is reported as 194 fold, the IC50 [1, 7] is reported as 0.038 nM and the IC50 [2] is reported as 7.4 nM. For the same molecule, the “Selectivity fold (TYK2/JAK2)” value [3] was >1011 fold, the IC50 [3] was 9.89 nM and the IC50 [4] was > 10000 nM.
For `CN(C(=O)CN1CCN(CCNC(=O)CCOCCOCCOCCOCCOCCOCCNC(=O)CCCC[C@@H]2SC[C@@H]3NC(=O)N[C@@H]32)CC1)c1ccc(N/C(=C2\C(=O)Nc3ccccc32)c2ccccc2)cc1` [Probe 2, N-(2-(4-(2-(methyl(4-((((Z)-2-oxoindolin-3-ylidene)(phenyl)methyl)amino)phenyl)amino)-2-oxoethyl)piperazin-1-yl)ethyl)-1-(5-((3aS,4S,6aR)-2-oxohexahydro-1H-thieno[3,4-d]imidazol-4-yl)pentanamido)-3,6,9,12,15,18-hexaoxahenicosan-21-amide], the Kd [6] was 2.9 nM.
For `COc1cc(Nc2cc(NC(C)=O)ncc2-c2ccc(F)cn2)nc(S(C)(=O)=O)c1` [Example F22, N-(5-fluoro-4′-((4-methoxy-6-(methylsulfonyl)pyridin-2-yl)amino)-[2,3′-bipyridin]-6′-yl)acetamide], the IC50 [1, 8] was 0.026 nM, the “Selectivity fold (TYK2/JAK2)” value [3] was >5494 fold and the IC50 [3] was 1.82 nM. The IC50 [4] was > 10000 nM, the AUClast [5, 9] was 2098 ng·h/mL and the T1/2 [5, 9] was 1.48 h. For the same molecule, the AUC [5, 10] was 2100 ng·h/mL and the Cmax [5, 11] was 911 ng/mL.
With `CC(=O)Nc1cc(Nc2cccc(S(C)(=O)=O)c2)c(-c2ccc(N3CCOCC3=O)cn2)cn1` [Example G1, N-(4′-((3-(methylsulfonyl)phenyl)amino)-5-(3-oxomorpholino)-[2,3′-bipyridin]-6′-yl)acetamide] the IC50 [1, 8] was 0.026 nM, the IC50 [2] was 4.9 nM and the “Selectivity fold (TYK2/JAK1)” value ([2]; JAK1-JH2 vs TYK2-JH2) was 188 fold. For the same molecule, the IC50 [3] was 14.4 nM, the IC50 [4] was > 10000 nM and the “Selectivity fold (TYK2/JAK2)” value ([4]; pSTAT5/GM-CSF vs pSTAT4/IL-12) was >694 fold.
For `CC(=O)Nc1cc(Nc2cccc(S(C)(=O)=O)c2)c(-c2cccnn2)cn1` [Example A1, N-(4-((3-(methylsulfonyl)phenyl)amino)-5-(pyridazin-3-yl)pyridin-2-yl)acetamide], the “Selectivity fold (TYK2/JAK1)” value ([1]; Biochemical assay) was 288 fold, the IC50 [1, 8] was 0.052 nM and the IC50 [2] was 15 nM. For the same molecule, the “Selectivity fold (TYK2/JAK2)” value [3] was >125 fold, the IC50 [3] was 79.5 nM and the IC50 [4] was > 10000 nM.
For `COc1cc(Nc2cc(NC(C)=O)ncc2-c2ccc3c(n2)OCC(C)(C)O3)nc(S(C)(=O)=O)c1` [Example Q25, N-(5-(2,2-dimethyl-2,3-dihydro-[1,4]dioxino[2,3-b]pyridin-6-yl)-4-((4-methoxy-6-(methylsulfonyl)pyridin-2-yl)amino)pyridin-2-yl)acetamide], the IC50 [1, 8] was 0.026 nM, the IC50 [3] was 0.53 nM and the IC50 [4] was 1820 nM. For the same molecule, the “Selectivity fold (TYK2/JAK2)” value ([4]; pSTAT5/GM-CSF IC50 over pSTAT4/IL-12 IC50) was 3437 fold, the “AUC and Cmax fold higher than those of Example F22 and H11” value ([5]; Po 10 mg/kg mouse) was “at least 3 fold” and the AUClast [5, 9] was 16245 ng·h/mL. It also gave a T1/2 [5, 9] of 3.01 h, an AUC [5, 10] of 16200 ng·h/mL and a Cmax [5, 11] of 2820 ng/mL.
With `CC(=O)Nc1cc(Nc2cccc(S(C)(=O)=O)c2)c(-c2cnc(C)cn2)cn1` [Example A4, N-(5-(5-methylpyrazin-2-yl)-4-((3-(methylsulfonyl)phenyl)amino)pyridin-2-yl)acetamide] the “Selectivity fold (TYK2/JAK1)” value ([1]; Biochemical assay) was 113 fold, the IC50 [1, 8] was 0.52 nM and the IC50 [2] was 59 nM.

Source: US20240043435A1, “TYK-2 INHIBITOR” (BEIGENE, LTD., priority 2020, published 2024)
